In article PMC10041525, “New Dual Inhibitors of Bacterial Topoisomerases with Broad-Spectrum Antibacterial Activity and In Vivo Efficacy against Vancomycin-Intermediate Staphylococcus aureus” (Journal of Medicinal Chemistry, 2023):
Converted amounts (≈) assume the structure as drawn. “And” between values parts separate entries of the source, which are not always exact repeats. Equal entries are not always repeated. Where two headings read alike, the source gives them in different places.

Columns and labels:
E. coli ATCC 25922 = test: IHMA QC MIC; type: cell-based; conditions: for MIC: Escherichia coli
P. aeruginosa ATCC 27853 = test: IHMA QC MIC; type: cell-based; conditions: for MIC: Pseudomonas aeruginosa
[1] = test system: 3 sensitive and 7 MDR A. baumannii clinical isolates; test: MIC, Hungarian clinical isolates and controls (384-well); type: cell-based; conditions: n=10
physchem = type: physicochemical; conditions: for solubility thermodynamic at 24 h / solubility thermodynamic at 48 h: phosphate-buffered saline (PBS)
Procedure: For the PBS, 2.38 g of disodium hydrogen phosphate dodecahydrate, 0.19 g of potassium dihydrogen phosphate, and 8.0 g of sodium chloride were added to distilled water (900 mL), and the solution was mixed overnight. […] Samples were prepared by weighing the exact mass of solid compounds (about 1 mg), and then, the appropriate volume of PBS was added to reach the final concentration of ∼1 mg/mL. […] The supernatant was diluted 3× with a 1:1 mixture of 0.1% TFA in water and acetonitrile and analyzed by HPLC. For the 7-point calibration curves, concentrated stock solutions of the compounds were prepared at concentrations of 10 and 0.5 mM in DMSO, which were diluted with a 1:1 mixture of 0.1% TFA in water and acetonitrile to the desired final concentrations and analyzed by HPLC. Results are given in μM as an average value of two independent experiments. For details on calibration curves, concentrations, analytical method, and HPLC method, see the Supporting Information.
Thermodynamic solubility assay
To determine thermodynamic solubility of compounds in PBS, calibration curves for the assayed compounds were prepared using seven concentrations. First, DMSO stock solutions of compounds at 10 mM and 0.5 mM concentration were prepared and then diluted (0.1% TFA in […]
Quality control (QC) samples were diluted from stock solutions with a 1:1 mixture of 0.1% TFA in water and acetonitrile to final concentrations of 60 µM, 20 µM, and 2 µM (6 µM, 2 µM, and 0.2 µM for 7f or 0.6 µM, 0.2 µM, and 0.02 µM for 7g).
Analytical reversed-phase UHPLC analyses were performed on Thermo Scientific Dionex UltiMate 3000 modular system (Thermo Fisher Scientific Inc., MA, USA). Waters Acquity UPLC® HSS C18 SB column (2.1 × 50 mm, 1.8 μm; Waters, Milford, MA, USA) was used at T […]
Mobile phase consisted of 0.1% trifluoroacetic acid in ultrapure water (solvent A) and acetonitrile […]
The obtained data was processed in Chromeleon CDS software (Thermo Fisher Scientific Inc., […]
Analytical method was tested for accuracy, precision and linear rang. Accuracy was […]
(or 2 or 0.2) µM and 60 (or 6 or 0.6) µM) to their true values and expressed in (%). Values were […]
Method repeatability was determined by calculating the RSD from the separately prepared and analysed quality control samples (n = 3). […] Linearity of the […]
method (1 (or 0.1 or 0.01) µM to 100 (or 10 or 1) µM) was evaluated from the 7-point calibration […]
Solubility was determined in two independent experiments and results were calculated in […]

[2] = test system: Enterococcus faecalis ATCC 29212; test: MIC broth microdilution (CLSI); type: cell-based, E. faecalis; conditions: Enterococcus faecalis, ATCC29212; read-out: MIC
[3] = ATCC25922, read-out: MIC (QC, repeated tests)
[4] = ATCC27853, read-out: MIC (QC, repeated tests)
[5] = pH 7.4, PBS pH 7.4, read-out: thermodynamic solubility, Experiment 1
[6] = pH 7.4, PBS pH 7.4, read-out: thermodynamic solubility, Experiment 2
[7] = pH 7.4, thermodynamic solubility (pH = 7.4), PBS, 37 °C, 24 h, mean of two

Q: Which results are given for `C[C@@H](O)[C@H]1C(=O)N2C(C(=O)O)=C(SCCNC=N)C[C@H]12` [Imipenem, imipenem]?
A: MIC (E. coli ATCC 25922; ATCC25922, QC strain E. coli ATCC 25922, test date 2021-11-26, read-out: MIC): 0.12 µg/mL (≈ 0.401 µM); MIC (E. coli ATCC 25922; [3]): ≤ 0.25 µg/mL; MIC (QC, repeated tests) (P. aeruginosa ATCC 27853): 1 µg/mL (≈ 3.34 µM); MIC (P. aeruginosa ATCC 27853; ATCC27853, QC strain P. aeruginosa ATCC 27853, test date 2021-11-11, read-out: MIC): 2 µg/mL (≈ 6.68 µM); MIC (P. aeruginosa ATCC 27853; ATCC27853, QC strain P. aeruginosa ATCC 27853, test date 2021-11-26, read-out: MIC): 2 µg/mL (≈ 6.68 µM); MIC (P. aeruginosa ATCC 27853; [4]): 2 µg/mL (≈ 6.68 µM); Cumulative % at MIC ([1]; MIC 0.5 µg/mL): 20%; Cumulative % at MIC ([1]; MIC 1 µg/mL): 30%; Cumulative % at MIC ([1]; MIC 64 µg/mL): 60%; Cumulative % at MIC ([1]; MIC 128 µg/mL): 80%; Cumulative % at MIC ([1]; MIC 256 µg/mL): 100%

Q: What does the source list for `CO/N=C(\C(=O)N[C@@H]1C(=O)N2C(C(=O)[O-])=C(C[N+]3(C)CCCC3)CS[C@H]12)c1csc(N)n1` [Cefepime, cefepime]?
A: MIC (E. coli ATCC 25922; [3]): ≤ 0.25 µg/mL; Cumulative % at MIC ([1]; MIC […] µg/mL): 20%

Q: Which results are given for `Cc1[nH]c(C(=O)Nc2nc3c(N4CCOCC4)cc(C(=O)O)cc3s2)cc1Cl` [16a, 2-(4-Chloro-5-methyl-1H-pyrrole-2-carboxamido)-4-morpholinobenzo[d]thiazole-6-carboxylic Acid]?
A: thermodynamic solubility (pH = 7.4) (physchem; PBS, 37 °C, 24 h, mean of two): 137.58 µM; solubility thermodynamic at 24 h (physchem; [5]): 134 µM (≈ 56.3 µg/mL); solubility thermodynamic at 24 h (physchem; [6]): 141 µM (≈ 59.6 µg/mL); solubility thermodynamic at 24 h (physchem; [7]): 138 µM (≈ 57.9 µg/mL); solubility thermodynamic at 48 h (physchem; [7]): 137 µM (≈ 57.7 µg/mL); MIC [2]: 1 µg/mL

Q: What does the source list for `Cc1[nH]c(C(=O)Nc2nc3c(N4CCOC[C@H]4C)cc(C(=O)O)cc3s2)c(Cl)c1Cl` [7c, (R)-2-(3,4-Dichloro-5-methyl-1H-pyrrole-2-carboxamido)-4-(3-methylmorpholino)benzo[d]thiazole-6-carboxylic Acid]?
A: thermodynamic solubility (pH = 7.4) (physchem; PBS, 37 °C, 24 h, mean of two): 10.14 µM; solubility thermodynamic at 24 h (physchem; [5]): 8.67 µM (≈ 4.07 µg/mL); solubility thermodynamic at 24 h (physchem; [6]): 11.6 µM (≈ 5.44 µg/mL); solubility thermodynamic at 24 h (physchem; [7]): 10.1 µM (≈ 4.74 µg/mL); MIC [2]: < 0.0312 µg/mL

Q: What does the source list for `Cc1[nH]c(C(=O)Nc2nc3c(N4CCOCC4C)cc(C(=O)O)cc3s2)c(Cl)c1Cl` (stereo not drawn) [7b, 2-(3,4-Dichloro-5-methyl-1H-pyrrole-2-carboxamido)-4-(3-methylmorpholino)benzo[d]thiazole-6-carboxylic Acid]?
A: solubility thermodynamic at 24 h (physchem; [5]): 59.6 µM (≈ 28 µg/mL); solubility thermodynamic at 24 h (physchem; [6]): 76.6 µM (≈ 36 µg/mL); solubility thermodynamic at 24 h (physchem; [7]): 68.1 µM (≈ 32 µg/mL); solubility thermodynamic at 48 h (physchem; [7]): 68 µM (≈ 31.9 µg/mL); MIC [2]: < 0.0312 µg/mL

Q: With `COC[C@@H]1CCCN1c1cc(C(=O)O)cc2sc(NC(=O)c3[nH]c(C)c(Cl)c3Cl)nc12` [7o, (S)-2-(3,4-Dichloro-5-methyl-1H-pyrrole-2-carboxamido)-4-(2-(methoxymethyl)pyrrolidin-1-yl)benzo[d]thiazole-6-carboxylic Acid] as the compound, how does the “thermodynamic solubility (pH = 7.4)” value (physchem; PBS, 37 °C, 24 h, mean of two) read?
A: 10.98 µM

Q: What about the solubility thermodynamic at 24 h (physchem; [5]) of the same compound?
A: 10.6 µM (≈ 5.12 µg/mL)

Q: What about the solubility thermodynamic at 24 h (physchem; [6]) of the same compound?
A: 11.4 µM (≈ 5.5 µg/mL)

Q: And the solubility thermodynamic at 24 h (physchem; [7])?
A: 11 µM (≈ 5.32 µg/mL)

Q: What about the MIC [2] of the same compound?
A: < 0.0312 µg/mL

Q: With `Cc1[nH]c(C(=O)Nc2nc3c(N4CCOC(C)C4)cc(C(=O)O)cc3s2)c(Cl)c1Cl` (stereo not drawn) [7e, 2-(3,4-Dichloro-5-methyl-1H-pyrrole-2-carboxamido)-4-(2-methylmorpholino)benzo[d]thiazole-6-carboxylic Acid] as the compound, how does the “thermodynamic solubility (pH = 7.4)” value (physchem; PBS, 37 °C, 24 h, mean of two) read?
A: 80.35 µM

Q: What about the solubility thermodynamic at 24 h (physchem; [5]) of the same compound?
A: 71.9 µM (≈ 33.7 µg/mL)

Q: And the solubility thermodynamic at 24 h (physchem; [6])?
A: 88.8 µM (≈ 41.7 µg/mL)

Q: What about the solubility thermodynamic at 24 h (physchem; [7]) of the same compound?
A: 80.4 µM (≈ 37.7 µg/mL)

Q: And the solubility thermodynamic at 48 h (physchem; [7])?
A: 80 µM (≈ 37.5 µg/mL)

Q: And the MIC [2]?
A: < 0.0312 µg/mL

Q: What does the source list for “piperacillin/tazobactam [Piperacillin Tazobactam]”?
A: MIC (QC, repeated tests) (E. coli ATCC 25922): 2 µg/mL; MIC (QC, repeated tests) (P. aeruginosa ATCC 27853): 4 µg/mL and 8 µg/mL

Q: For `C[C@@H](O)[C@H]1C(=O)N2C(C(=O)O)=C(S[C@@H]3CN[C@H](C(=O)N(C)C)C3)[C@H](C)[C@H]12` [Meropenem, meropenem], which MIC (E. coli ATCC 25922; [3]) is on record?
A: ≤ 0.06 µg/mL

Q: What about the “MIC (QC, repeated tests)” value (P. aeruginosa ATCC 27853) of the same compound?
A: 1 µg/mL (≈ 2.61 µM)

Q: And the MIC (P. aeruginosa ATCC 27853; [4])?
A: 0.5 µg/mL (≈ 1.3 µM)

Q: What about the “Cumulative % at MIC” value ([1]; MIC 1 µg/mL) of the same compound?
A: 30%

Q: What about the “Cumulative % at MIC” value ([1]; MIC 64 µg/mL) of the same compound?
A: 100%

Q: What about the “Cumulative % at MIC” value ([1]; MIC […]) of the same compound?
A: 10%
